Holding throughout (format): biochemical
Experiment [1] has as its target T1, Itk (Homo sapiens, UniProt Q08881).
T1 sequence (Q08881 1-620): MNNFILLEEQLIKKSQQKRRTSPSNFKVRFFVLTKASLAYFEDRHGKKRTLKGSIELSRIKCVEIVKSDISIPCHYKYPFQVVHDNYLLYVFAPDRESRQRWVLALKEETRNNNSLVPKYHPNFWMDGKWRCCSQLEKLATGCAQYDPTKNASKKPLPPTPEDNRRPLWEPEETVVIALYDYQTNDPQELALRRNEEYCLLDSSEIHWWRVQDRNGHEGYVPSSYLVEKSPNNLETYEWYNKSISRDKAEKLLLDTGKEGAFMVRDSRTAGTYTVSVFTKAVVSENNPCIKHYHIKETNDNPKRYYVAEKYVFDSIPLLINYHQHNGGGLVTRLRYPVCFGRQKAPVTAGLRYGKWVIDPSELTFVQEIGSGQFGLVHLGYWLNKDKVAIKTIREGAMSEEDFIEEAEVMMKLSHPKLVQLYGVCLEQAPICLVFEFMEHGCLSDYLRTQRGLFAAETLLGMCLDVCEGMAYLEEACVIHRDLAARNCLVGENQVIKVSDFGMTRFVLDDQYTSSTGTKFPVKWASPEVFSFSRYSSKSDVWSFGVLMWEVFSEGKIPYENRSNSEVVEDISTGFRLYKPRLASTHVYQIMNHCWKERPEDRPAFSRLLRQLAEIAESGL
The experiment can be described thus: ITK Inhibition Assay (Radiometric), radioactive-phosphate incorporation. The settings on record: enzyme inhibition data (Ki), Table 11; radiometric or UV assay not stated. In outline: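 Radiometric 33P incorporation into SAM68 peptide (D332-443) with filter capture and scintillation counting; 10 min pre-incubation then 10 min reaction at 25° C. IC50 format: 30 nM Itk, 15 μM ATP, 2 μM peptide, HEPES pH 7.5. Ki(app) format: 50 nM Itk, 7.5 μM ATP, 3 μM peptide, MOPS pH 7.0.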

Experiment [2] addresses c-Met (Homo sapiens, UniProt P08581). The experiment can be described thus: c-Met Inhibition Assay, coupled enzyme system. The settings on record: enzyme inhibition data (Ki), Table 11. In outline:
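Pyruvate kinase/lactate dehydrogenase-coupled NADH assay in HEPES pH 7.5 with 80 nM c-Met, 200 μM ATP and 10 μM polyGluTyr at 30° C. Compound (0.006–12.5 μM final, 12-point) preincubated 10 min before ATP start; rates over 10 min gave Ki.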

The target in experiment [3] is T2, JAK3 (Homo sapiens, UniProt P52333).
T2 sequence (P52333 1-1124): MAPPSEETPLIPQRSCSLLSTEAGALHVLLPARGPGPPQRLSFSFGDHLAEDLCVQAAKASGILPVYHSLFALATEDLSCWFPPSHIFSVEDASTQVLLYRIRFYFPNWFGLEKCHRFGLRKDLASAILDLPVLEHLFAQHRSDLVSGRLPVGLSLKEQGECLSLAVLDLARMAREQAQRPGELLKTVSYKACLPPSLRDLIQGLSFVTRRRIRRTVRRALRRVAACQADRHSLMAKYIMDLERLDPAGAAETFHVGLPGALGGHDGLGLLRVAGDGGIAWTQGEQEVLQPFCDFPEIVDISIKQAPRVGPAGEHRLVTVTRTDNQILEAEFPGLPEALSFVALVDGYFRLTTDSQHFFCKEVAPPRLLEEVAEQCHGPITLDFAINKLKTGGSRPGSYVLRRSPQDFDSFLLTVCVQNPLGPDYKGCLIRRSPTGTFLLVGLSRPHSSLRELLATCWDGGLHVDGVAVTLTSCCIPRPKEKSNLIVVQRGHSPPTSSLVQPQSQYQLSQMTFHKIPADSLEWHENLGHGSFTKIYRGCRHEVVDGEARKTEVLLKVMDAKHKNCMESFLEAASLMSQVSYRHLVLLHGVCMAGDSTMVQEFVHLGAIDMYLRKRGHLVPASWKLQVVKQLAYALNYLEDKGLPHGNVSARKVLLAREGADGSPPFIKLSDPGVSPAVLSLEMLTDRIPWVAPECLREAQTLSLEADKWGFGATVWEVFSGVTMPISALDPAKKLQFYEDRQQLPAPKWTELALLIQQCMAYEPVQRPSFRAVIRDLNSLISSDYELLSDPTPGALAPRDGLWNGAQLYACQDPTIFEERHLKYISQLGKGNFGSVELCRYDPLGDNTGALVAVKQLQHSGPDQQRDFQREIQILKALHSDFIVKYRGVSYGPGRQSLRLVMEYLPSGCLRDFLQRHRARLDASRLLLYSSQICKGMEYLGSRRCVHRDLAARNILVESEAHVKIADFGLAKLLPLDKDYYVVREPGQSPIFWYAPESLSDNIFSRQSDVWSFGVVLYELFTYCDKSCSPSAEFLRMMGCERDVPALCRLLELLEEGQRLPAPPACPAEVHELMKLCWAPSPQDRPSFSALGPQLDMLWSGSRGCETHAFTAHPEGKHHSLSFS
Put plainly: JAK3 Inhibition Assay, 33P incorporation. The settings on record: enzyme inhibition data (Ki), Table 11. Put shortly:
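Recombinant JAK3 at 1 nM in HEPES pH 7.4 buffer with 10 mM MgCl2, 1 mM DTT and 0.01% BSA. Substrates were 5 μM ATP (200 uCi/μmole) and 1 μM poly(Glu)4Tyr, reacted 20 min at 25 °C. Stopped with TCA, and 33P incorporation counted on glass fiber filters.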

Here are results for 20 compounds from patent US7528138B2, “Pyrazolo[1,5-a]pyrimidines useful as inhibitors of protein kinases” (Vertex Pharmaceuticals Incorporated, priority 2004, dated 2009).

Chain of c-Met (P08581 25-1390): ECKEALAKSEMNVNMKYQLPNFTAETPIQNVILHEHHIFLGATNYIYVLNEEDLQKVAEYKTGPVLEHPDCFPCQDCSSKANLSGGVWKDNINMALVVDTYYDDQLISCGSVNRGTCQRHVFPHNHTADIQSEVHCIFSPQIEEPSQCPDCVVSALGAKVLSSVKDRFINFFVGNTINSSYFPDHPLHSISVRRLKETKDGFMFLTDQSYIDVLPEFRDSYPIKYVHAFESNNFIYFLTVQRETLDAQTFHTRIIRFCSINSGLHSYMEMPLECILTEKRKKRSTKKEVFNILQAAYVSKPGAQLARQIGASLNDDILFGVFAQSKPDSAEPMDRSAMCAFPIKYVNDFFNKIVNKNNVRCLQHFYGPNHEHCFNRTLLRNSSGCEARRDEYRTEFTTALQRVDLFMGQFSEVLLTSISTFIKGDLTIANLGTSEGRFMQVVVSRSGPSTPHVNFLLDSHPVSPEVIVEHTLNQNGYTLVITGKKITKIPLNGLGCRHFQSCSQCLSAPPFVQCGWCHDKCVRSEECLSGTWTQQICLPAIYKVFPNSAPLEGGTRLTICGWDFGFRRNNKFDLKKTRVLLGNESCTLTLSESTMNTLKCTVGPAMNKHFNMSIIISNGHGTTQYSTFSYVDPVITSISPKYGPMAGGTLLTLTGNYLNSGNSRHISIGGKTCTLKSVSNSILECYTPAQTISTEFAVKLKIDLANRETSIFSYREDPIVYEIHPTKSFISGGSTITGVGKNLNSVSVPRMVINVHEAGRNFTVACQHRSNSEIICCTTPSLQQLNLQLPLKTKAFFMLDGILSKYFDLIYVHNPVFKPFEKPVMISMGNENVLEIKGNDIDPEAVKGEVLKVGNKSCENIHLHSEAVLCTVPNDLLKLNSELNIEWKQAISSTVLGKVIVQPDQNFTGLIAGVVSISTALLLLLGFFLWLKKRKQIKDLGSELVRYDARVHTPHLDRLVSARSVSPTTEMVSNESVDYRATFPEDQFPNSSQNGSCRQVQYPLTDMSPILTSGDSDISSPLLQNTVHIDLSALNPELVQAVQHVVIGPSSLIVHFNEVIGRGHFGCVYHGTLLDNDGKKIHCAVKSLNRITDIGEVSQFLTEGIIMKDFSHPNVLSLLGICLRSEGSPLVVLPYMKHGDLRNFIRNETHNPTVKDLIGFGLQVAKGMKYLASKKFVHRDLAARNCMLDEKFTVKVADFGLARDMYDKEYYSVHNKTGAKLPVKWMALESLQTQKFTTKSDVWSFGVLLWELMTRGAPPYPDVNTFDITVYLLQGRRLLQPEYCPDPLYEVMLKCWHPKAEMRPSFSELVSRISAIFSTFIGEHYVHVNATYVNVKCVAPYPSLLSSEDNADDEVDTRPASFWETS

Regarding `CCOC(=O)c1c(N)nn2cc(CCCOC(C)=O)cnc12` [Compound V-48], the inhibition constant (Ki) – broadly, a measure of affinity in units of concentration, obtained from inhibition or displacement – in experiment [1] is 0.5 to 5 µM; in experiment [2], 0.5 to 5 µM; in experiment [3], above 5 µM.

For the compound `Nc1nn2cc(-c3ccnc(N4CCN(CCOCCO)CC4)c3)cnc2c1-c1ccccn1` [Compound V-249], the inhibition constant (Ki) in experiment [1] is 0.5 to 5 µM; in experiment [2] it was below 0.5 µM; in experiment [3], 0.5 to 5 µM.

Turning to `CCCN(CCO)c1ccc(-c2cnc3c(-c4ccccn4)c(N)nn3c2)cn1` [Compound V-158], the Ki in experiment [1] is 0.5 to 5 µM; in experiment [2], below 0.5 µM; in experiment [3] it was above 5 µM.

For `CCN(CCO)C(=O)c1ccc(-c2cnc3c(-c4ccccn4)c(N)nn3c2)nc1` [Compound V-99], the Ki in experiment [1] is below 0.5 µM; in experiment [2] it was below 0.5 µM; in experiment [3] it was 0.5 to 5 µM.

Regarding `CC(=O)N1CCN(c2ccc(-c3cnc4c(-c5ccccn5)c(N)nn4c3)cn2)CC1` [Compound V-149], the figures for the Ki in experiment [1], in experiment [2] and in experiment [3] were 0.5 to 5 µM, below 0.5 µM and 0.5 to 5 µM, respectively.

Consider `CN(C)CCN(C)C(=O)c1ccc(-c2cnc3c(Cc4ccccc4)c(N)nn3c2)nc1` [Compound V-211], for which the inhibitory constant (Ki) in experiment [1] is 0.5 to 5 µM; in experiment [2] it was 0.5 to 5 µM; in experiment [3], above 5 µM.

Turning to `CCOC(=O)c1c(N)nn2cc(-c3cnccn3)cnc12` [Compound V-26], the Ki in experiment [1] was 0.5 to 5 µM; in experiment [2] it was 0.5 to 5 µM; in experiment [3], above 5 µM.

For the compound `Nc1nn2cc(-c3ccc(NCCCC4=NCC=N4)nc3)cnc2c1-c1ccccn1` [Compound V-161], the results for the inhibition constant Ki in experiment [1], in experiment [2] and in experiment [3] were 0.5 to 5 µM, below 0.5 µM and above 5 µM, respectively.

`N#Cc1ccccc1-c1cnc2c(-c3ccccn3)c(N)nn2c1` [Compound V-10]: the figures for the Ki in experiment [1], in experiment [2] and in experiment [3] were 0.5 to 5 µM, 0.5 to 5 µM and above 5 µM, respectively.

With `CC(C)(C)OC(=O)N1CCC(CNC(=O)c2cnc3c(-c4ccccn4)c(N)nn3c2)CC1` [Compound V-201], the Ki in experiment [1] is 0.5 to 5 µM; in experiment [2], 0.5 to 5 µM; in experiment [3], above 5 µM.

Consider `CCOC(=O)c1c(N)nn2cc(-c3ccccn3)cnc12` [Compound V-25], for which the inhibitory constant (Ki) in experiment [1] was 0.5 to 5 µM; in experiment [2], 0.5 to 5 µM; in experiment [3] it was above 5 µM.

Consider `CN1CCCN(c2cc(-c3cnc4c(-c5ccccn5)c(N)nn4c3)ccn2)CC1` [Compound V-254], for which the inhibitory constant (Ki) is 0.5 to 5 µM in experiment [1], 0.5 to 5 µM in experiment [2] and above 5 µM in experiment [3].

Turning to `CC(C)CN(C)CCCc1cnc2c(-c3ccccn3)c(N)nn2c1` [Compound V-317], the inhibition constant Ki was 0.5 to 5 µM in experiment [1], 0.5 to 5 µM in experiment [2] and above 5 µM in experiment [3].

Consider `Nc1nn2cc(-c3cccc(C(=O)N4CCCC(O)C4)n3)cnc2c1-c1ccccn1` (stereo not drawn) [Compound V-140], for which the Ki is 0.5 to 5 µM in experiment [1], below 0.5 µM in experiment [2] and above 5 µM in experiment [3].

As for `COCCCN1CCN(C(=O)c2cccc(-c3cnc4c(-c5ccccn5)c(N)nn4c3)n2)CC1` [Compound V-117], the Ki is 0.5 to 5 µM in experiment [1], below 0.5 µM in experiment [2] and above 5 µM in experiment [3].

As to `Nc1nn2cc(-c3ccc(N4CCCCC4)nc3)cnc2c1-c1ccccn1` [Compound V-147], the results for the Ki in experiment [1], in experiment [2] and in experiment [3] were 0.5 to 5 µM, 0.5 to 5 µM and above 5 µM, respectively.

On to `Nc1nn2cc(-c3ccccc3C=O)cnc2c1-c1ccccn1` [Compound V-12], for which the Ki in experiment [1] is 0.5 to 5 µM; in experiment [2], 0.5 to 5 µM; in experiment [3] it was above 5 µM.

Regarding `Nc1nn2cc(-c3ccc(N4CCOCC4)nc3)cnc2c1-c1ccccn1` [Compound V-144], the inhibition constant Ki in experiment [1] is 0.5 to 5 µM; in experiment [2], below 0.5 µM; in experiment [3], above 5 µM.

On to `Cc1cnc2c(-c3cc(N4CCCC(C)C4)ncn3)c(N)nn2c1` (stereo not drawn) [Compound V-339], for which the inhibitory constant (Ki) in experiment [1], in experiment [2] and in experiment [3] was below 0.5 µM throughout.

For `COC[C@H]1CCCN1c1cc(-c2c(N)nn3cc(C)cnc23)ncn1` [Compound V-302], the Ki in experiment [1] was below 0.5 µM; in experiment [2], below 0.5 µM; in experiment [3], 0.5 to 5 µM.
